From patent publication US11541029B2, “High penetration compositions and their applications” (Techfields Pharma Co., Ltd., priority 2008, dated 2023)
One block for each compound: values may come before it.

Key:
[1] = test system: Human breast cancer cells (BCAP-37); experiment: Human breast cancer xenograft in nude mice
Method: Human breast cancer cells (BCAP-37, 2-3 mm^3 of tumor tissue was used in each mouse) were subcutaneously xenografted into nude mice (BALB, 12 groups, 7 mice each group). […] 50 μl of 5% (equal to 2.5 mg of the HPCs) diethylaminoethyl acetylsalicylate.HCl (P-1, in pure water); 1-piperidinepropyl 2[(2,6-dichlorophenyl)amino]benzene acetate.HCl (P-2, in water), 1-pyrrolidinepropyl 2-(3-benzoylphenyl) propionate.HCl (P-3, in water), 4-piperidinemethyl 2-(3-phenoxyphenyl)propionate.HCl (P-4, in water), 3-piperidinemethyl 2-(ρ-isobutylphenyl) propionate.HCl (P-5, in water), diethylaminoethyl 1-(p-chlorobenzoyl)-5-methoxy-2-methylindole 3-acetate.HCl (P-11, in water), 2-(4-morpholinyl)ethyl (Z)-5-fluoro-2-methyl-1-[(4-methylsulfinyl)phenylmethylene]-1H-indene-3-acetate.

[2] = test system: human myeloma cell line implanted into mice; experiment: Survival and weight loss of myeloma mice (Example 111); format: in vivo; settings: for Weight Loss: day 21; for Life Elongation Rate / None Disease Rate / Survival Period: n=7
Excerpt: A human myeloma cell line derived from the ascites of a patient with multiple myeloma was implanted into mice. The mice was divided into 11 groups: control group (A, orally), melphalan (B1 and B2, orally), chlorambucil (C1 and C2, orally), N,N-diethylaminoethyl 4-[bis(2-chloroethyl)amino]benzenebutyrate.HBr (D1 and D2, transdermally), 4-[bis(2-chloroethyl)amino]-N-acetyl-L-phenylalanine N,N-diethylaminoethyl ester hydrobromide (E1 and E2, transdermally in 5% aqueous solution), and diethylaminoethyl 4-[bis(2-methylsulfonylethyl)amino]benzenebutyrate.HCl (F1 and F2, transdermally in 5% aqueous solution). The body weight loss of mice was determined on day 21.

[3] = test system: human myeloma cell line implanted into mice; experiment: Survival of mice with multiple myeloma (Example 110, Study B); format: in vivo; settings: n=5
Method: Study B: For evaluation of antitumor activity, a human myeloma cell line derived from the ascites of a patient with multiple myeloma was implanted into mice. The experiment was carried out on 17 groups of mice. Control group (A, orally), chlorambucil (group B1: 1 mg/kg, orally, group B2, 3 mg/kg, orally, group B3:1 mg/kg, transdermally, and group B4: 3 mg/kg, transdermally), melphalan (group C1: 1 mg/kg, orally, group C2, 3 mg/kg, orally, group C3:1 mg/kg, transdermally, and group C4: 3 mg/kg, transdermally), N,N-diethylaminoethyl 4-[bis(2-chloroethyl)amino]benzenebutyrate.HBr (the HPC of chlorambucil (group D1: 1 mg/kg, orally, group D2, 3 mg/kg, orally, group D3:1 mg/kg, transdermally, and group D4: 3 mg/kg, transdermally), and 4-[bis(2-chloroethyl)amino]-N-acetyl-L-phenylalanine N,N-diethylaminoethyl ester hydrobromide (the HPC of melphalan) (group E1: 1 mg/kg, orally, group E2, 3 mg/kg, orally, group E3:1 mg/kg, transdermally, and group E4: 3 mg/kg, transdermally).

[4] = Distribution in organs of rats killed with CO2 (absence of general circulation); settings: 5 hrs after 0.3 mmol/kg diethylaminoethyl acetylsalicylate HCl salt on back of killed rats;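 also: tissue concentration in nmol/g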
Method: 0.3 mmol/kg of diethylaminoethyl acetylsalicylate HCl salt (10% in pure water) was applied to the back of rats (10 cm^2) which were killed with CO2. The rats were shaken for 5 hrs, then the HPCs and parent drugs in organs of rats were determined.

[5] = 50 μl of 5% topically every 8 hours
[6] = 1.5 mg/kg per day, transdermally
[7] = 50 μl of 5% topically every 8 hours, in g (unit assumed)

Weight of mice at day 42 ([1]; in vivo): 23 ± 2
Compound: CN(C)CCCC(=O)OC1=C(C(=O)Nc2ccccn2)N(C)S(=O)(=O)c2ccccc21.Cl [P-51, 4-N,N-dimethylaminobutyryloxy-2-methyl-N-2-pyridinyl-2H,1,2-benzothiazine-3-carboxamide 1,1-dioxide.HCl]
tumor Size at day 42 [1, 5]: 390 ± 55 mm^3

Compound: CCN(CC)CCOC(=O)CCCc1ccc(N(CCS(C)(=O)=O)CCS(C)(=O)=O)cc1.Cl [diethylaminoethyl 4-[bis(2-methylsulfonylethyl)amino]benzenebutyrate.HCl]
Weight Loss [2, 6]: 7%
Life Elongation Rate [2, 6]: 259%
None Disease Rate [2, 6]: 4/7
Survival Period [2, 6]: 112.5 ± 8.7 days
Weight Loss ([2]; 3 mg/kg per day, transdermally): 11%
Life Elongation Rate ([2]; 3 mg/kg per day, transdermally): 256%
None Disease Rate ([2]; 3 mg/kg per day, transdermally): 3/7
Survival Period ([2]; 3 mg/kg per day, transdermally): 111.2 ± 5.9 days

Compound: N[C@@H](Cc1ccc(N(CCCl)CCCl)cc1)C(=O)O [melphalan, reference compound]
Life Elongation Rate ([3]; 1 mg/kg per day, orally): 106%
Survival Period ([3]; 1 mg/kg per day, orally): 48.1 ± 5.3 days
Life Elongation Rate ([3]; 1 mg/kg per day, transdermally): 98%
Survival Period ([3]; 1 mg/kg per day, transdermally): 44.7 ± 3.6 days
Life Elongation Rate ([3]; 3 mg/kg per day, orally): 155%
Survival Period ([3]; 3 mg/kg per day, orally): 70.5 ± 3.2 days
Life Elongation Rate ([3]; 3 mg/kg per day, transdermally): 100%
Survival Period ([3]; 3 mg/kg per day, transdermally): 45.6 ± 3.6 days
Weight Loss ([2]; 1.5 mg/kg per day, orally): 10%
Life Elongation Rate ([2]; 1.5 mg/kg per day, orally): 121%
None Disease Rate ([2]; 1.5 mg/kg per day, orally): 0/7
Survival Period ([2]; 1.5 mg/kg per day, orally): 52.7 ± 4.3 days
Weight Loss ([2]; 3 mg/kg per day, orally): 20%
Life Elongation Rate ([2]; 3 mg/kg per day, orally): 192%
None Disease Rate ([2]; 3 mg/kg per day, orally): 2/7
Survival Period ([2]; 3 mg/kg per day, orally): 83.5 ± 5.8 days

Compound: O=C(O)c1ccccc1O [salicylic acid]
concentration in Leg muscle [4]: 41.4 ± 11.2 nmol/g
concentration in kidney [4]: 21.2 ± 7.6 nmol/g
concentration in liver [4]: 12.2 ± 6.1 nmol/g
concentration in pancreas [4]: 14.1 ± 1.2 nmol/g
concentration in stomach [4]: 25.1 ± 2.4 nmol/g

Compound: Br.CCN(CC)CCOC(=O)CCCc1ccc(N(CCCl)CCCl)cc1 [N,N-diethylaminoethyl 4-[bis(2-chloroethyl)amino]benzenebutyrate.HBr]
Life Elongation Rate ([3]; 1 mg/kg per day, orally): 158%
Survival Period ([3]; 1 mg/kg per day, orally): 71.7 ± 3.3 days
Life Elongation Rate ([3]; 1 mg/kg per day, transdermally): 188%
Survival Period ([3]; 1 mg/kg per day, transdermally): 85.7 ± 4.4 days
Life Elongation Rate ([3]; 3 mg/kg per day, orally): 194%
Survival Period ([3]; 3 mg/kg per day, orally): 88.5 ± 3.2 days
Life Elongation Rate ([3]; 3 mg/kg per day, transdermally): 201%
Survival Period ([3]; 3 mg/kg per day, transdermally): 91.5 ± 4.7 days
Weight Loss [2, 6]: 7%
Life Elongation Rate [2, 6]: 282%
None Disease Rate [2, 6]: 4/7
Survival Period [2, 6]: 122.5 ± 7.3 days
Weight Loss ([2]; 3 mg/kg per day, transdermally): 10%
Life Elongation Rate ([2]; 3 mg/kg per day, transdermally): 269%
None Disease Rate ([2]; 3 mg/kg per day, transdermally): 4/7
Survival Period ([2]; 3 mg/kg per day, transdermally): 117.2 ± 6.1 days

Compound: Cl.O=C(OCCCN1CCCC1)c1ccccc1Nc1cccc(C(F)(F)F)c1 [P-48]
tumor Size at day 42 [1, 5]: 280 ± 50 mm^3
Weight of mice at day 42 [1, 7]: 22 ± 3

Compound: CCN(CC)CCOc1ccccc1C(=O)O [diethylaminoethyl salicylic acid]
concentration in Leg muscle [4]: 6.2 ± 3.2 nmol/g
concentration in kidney [4]: 3.1 ± 1.6 nmol/g
concentration in liver [4]: 1.5 ± 1.2 nmol/g
concentration in pancreas [4]: 3.1 ± 1.1 nmol/g
concentration in stomach [4]: 3.2 ± 1.3 nmol/g

Weight of mice at day 42 ([1]; in vivo): 23 ± 3
Compound: CC1=C(CC(=O)OCCN2CCOCC2)c2cc(F)ccc2/C1=C\c1ccc([S+](C)[O-])cc1.Cl (stereo not drawn) [P-12, 2-(4-morpholinyl)ethyl (Z)-5-fluoro-2-methyl-1-[(4-methylsulfinyl)phenylmethylene]-1H-indene-3-acetate. HCl]
tumor Size at day 42 [1, 5]: 240 ± 60 mm^3

Weight of mice at day 42 ([1]; in vivo): 23 ± 3
Compound: CCN(CC)CCOC(=O)C(C)c1ccc2c(c1)C(=O)Cc1cc(C)ccc1O2.Cl (stereo not drawn) [P-37, diethylaminoethyl 2-(8-methyl-10,11-dihydro-11-oxodibenz(b,f)oxepin-2-yl)propionate.HCl]
tumor Size at day 42 [1, 5]: 270 ± 70 mm^3

Weight of mice at day 42 ([1]; in vivo): 22 ± 2
Compound: CCN(CC)CCOC(=O)Cc1ccccc1Oc1ccc(Cl)cc1Cl.Cl [P-19, diethylaminoethyl 2-(2,4-dichlorophenoxy)benzeneacetate.HCl]
tumor Size at day 42 [1, 5]: 260 ± 55 mm^3

Compound: Br.CCN(CC)CCOC(=O)[C@H](Cc1ccc(N(CCCl)CCCl)cc1)NC(C)=O [4-[bis(2-chloroethyl)amino]-N-acetyl-L-phenylalanine N,N-diethylaminoethyl ester hydrobromide]
Life Elongation Rate ([3]; 1 mg/kg per day, orally): 151%
Survival Period ([3]; 1 mg/kg per day, orally): 68.7 ± 5.1 days
Life Elongation Rate ([3]; 1 mg/kg per day, transdermally): 190%
Survival Period ([3]; 1 mg/kg per day, transdermally): 86.7 ± 4.5 days
Life Elongation Rate ([3]; 3 mg/kg per day, orally): 187%
Survival Period ([3]; 3 mg/kg per day, orally): 85.2 ± 4.3 days
Life Elongation Rate ([3]; 3 mg/kg per day, transdermally): 192%
Survival Period ([3]; 3 mg/kg per day, transdermally): 87.5 ± 4.2 days
Weight Loss [2, 6]: 5%
Life Elongation Rate [2, 6]: 272%
None Disease Rate [2, 6]: 4/7
Survival Period [2, 6]: 118.5 ± 7.6 days
Weight Loss ([2]; 3 mg/kg per day, transdermally): 9%
Life Elongation Rate ([2]; 3 mg/kg per day, transdermally): 265%
None Disease Rate ([2]; 3 mg/kg per day, transdermally): 3/7
Survival Period ([2]; 3 mg/kg per day, transdermally): 115.2 ± 6.8 days

Weight of mice at day 42 [1, 7]: 23 ± 2
Compound: CCN(CC)CCOC(=O)Cc1c(C)n(C(=O)c2ccc(Cl)cc2)c2ccc(OC)cc12.Cl [P-11, diethylaminoethyl 1-(p-chlorobenzoyl)-5-methoxy-2-methylindole 3-acetate.HCl]
tumor Size at day 42 [1, 5]: 230 ± 105 mm^3
